Source: ChEMBL document CHEMBL1201862, “PubChem BioAssay data set” (2004)
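Dose response: 5 concentrations. Exposure: 48 h. Format: 96-well plates. Endpoint: linear interpolation; highest concentration if not reached. Abbreviation: GI50, concentration required for 50% inhibition of growth.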 Activity calls are given as the source filed them. Rule as the data show it: active = GI50 up to about 1.1 µM and inactive = higher.

Assays:
Test in all cases: NCI anticancer screen, dose series, 48 h
NCI-H23 = test system: NCI-H23
SNB-78 = test system: SNB-78
OVCAR-3 = test system: OVCAR-3
EKVX = test system: EKVX
HOP-62 = test system: HOP-62
ACHN = test system: ACHN
A498 = test system: A498
DMS-273 = test system: DMS-273
RPMI-8226 = test system: RPMI-8226
KM-20L2 = test system: KM-20L2
CAKI-1 = test system: CAKI-1
DLD-1 = test system: DLD-1
K562 = test system: K562
OVCAR-5 = test system: OVCAR-5
CCRF-CEM = test system: CCRF-CEM
DMS-114 = test system: DMS-114
M19-MEL = test system: M19-MEL
DU-145 = test system: DU-145
MDA-MB-231 = test system: MDA-MB-231
BT-549 = test system: BT-549

SMILES	GI50 (NCI-H23)	GI50 (SNB-78)	GI50 (OVCAR-3)	GI50 (EKVX)	GI50 (HOP-62)	GI50 (ACHN)	GI50 (A498)	GI50 (DMS-273)	GI50 (RPMI-8226)	GI50 (KM-20L2)	GI50 (CAKI-1)	GI50 (DLD-1)	GI50 (K562)	GI50 (OVCAR-5)	GI50 (CCRF-CEM)	GI50 (DMS-114)	GI50 (M19-MEL)	GI50 (DU-145)	GI50 (MDA-MB-231)	GI50 (BT-549)
COc1ccc(/C=C(\C2=NC(=O)CS2)c2nc3ccccc3[nH]2)cc1	69.7 µM (inactive)	21.5 µM (inactive)	22 µM (inactive)	38.4 µM (inactive)	32.1 µM (inactive)	37.6 µM (inactive)	75.9 µM (inactive)	> 100 µM (inactive)	> 100 µM (inactive)	49 µM (inactive)	> 100 µM (inactive)	> 100 µM (inactive)	78.2 µM (inactive)	41.8 µM (inactive)	39.4 µM (inactive)	19.5 µM (inactive)	43.5 µM (inactive)	–	–	–
S=c1c2nc[nH]c2ncn1CCSC1=NC=NC2=NC=NC21 (configuration not stated)	> 100 µM (inactive)	73.6 µM (inactive)	57.1 µM (inactive)	> 100 µM (inactive)	66.1 µM (inactive)	> 100 µM (inactive)	> 100 µM (inactive)	64.4 µM (inactive)	> 85.5 µM (inactive)	> 100 µM (inactive)	> 100 µM (inactive)	> 100 µM (inactive)	30.6 µM (inactive)	> 100 µM (inactive)	> 82.2 µM (inactive)	> 100 µM (inactive)	> 100 µM (inactive)	78.3 µM (inactive)	> 100 µM (inactive)	> 100 µM (inactive)
CC(C)CC(N/C=C1/N=C(c2ccccc2)OC1=O)C(=O)O (configuration not stated)	> 100 µM (inactive)	> 100 µM (inactive)	> 100 µM (inactive)	> 100 µM (inactive)	> 100 µM (inactive)	> 100 µM (inactive)	> 100 µM (inactive)	> 100 µM (inactive)	> 100 µM (inactive)	> 100 µM (inactive)	> 100 µM (inactive)	> 100 µM (inactive)	> 100 µM (inactive)	> 100 µM (inactive)	> 100 µM (inactive)	> 100 µM (inactive)	> 100 µM (inactive)	–	–	–
CN1c2ccccc2N(C(=O)c2ccc([N+](=O)[O-])cc2)C(CC(=O)O)c2cccn21 (configuration not stated)	> 100 µM (inactive)	> 100 µM (inactive)	> 100 µM (inactive)	> 100 µM (inactive)	> 100 µM (inactive)	> 100 µM (inactive)	> 100 µM (inactive)	> 100 µM (inactive)	> 100 µM (inactive)	> 100 µM (inactive)	> 100 µM (inactive)	> 100 µM (inactive)	> 100 µM (inactive)	> 100 µM (inactive)	> 100 µM (inactive)	> 100 µM (inactive)	> 100 µM (inactive)	–	–	–
COC1O[C@H]2CCN(C(=O)OCc3ccccc3)[C@H]2[C@H]1OCc1ccccc1 (some centres not stated)	20.3 µM (inactive)	54.8 µM (inactive)	42.6 µM (inactive)	49.2 µM (inactive)	> 100 µM (inactive)	39.6 µM (inactive)	> 100 µM (inactive)	39.1 µM (inactive)	41 µM (inactive)	69.2 µM (inactive)	40.3 µM (inactive)	48.3 µM (inactive)	30.5 µM (inactive)	> 100 µM (inactive)	34.9 µM (inactive)	29.6 µM (inactive)	53 µM (inactive)	–	–	–
CN(C)CCNC(=O)c1cccc2cc3cc(O)ccc3nc12	1.24 µM (inactive)	2.47 µM (inactive)	1.13 µM (inactive)	1.95 µM (inactive)	1.06 µM (active)	–	0.782 µM (active)	0.662 µM (active)	1.36 µM (inactive)	2.44 µM (inactive)	< 0.0499 µM (active)	1.42 µM (inactive)	1.43 µM (inactive)	1.46 µM (inactive)	0.59 µM (active)	1.37 µM (inactive)	1.2 µM (inactive)	–	–	–
CC1(O)C=CC(=O)C=C1	30.3 µM (inactive)	34.8 µM (inactive)	24.2 µM (inactive)	47.3 µM (inactive)	> 52.6 µM (inactive)	27.5 µM (inactive)	37.6 µM (inactive)	18.3 µM (inactive)	30.1 µM (inactive)	32 µM (inactive)	30.8 µM (inactive)	12.4 µM (inactive)	33.5 µM (inactive)	98.2 µM (inactive)	22.2 µM (inactive)	16.4 µM (inactive)	22.6 µM (inactive)	–	–	–
CS(=O)(=O)N/N=C/CN1C(=O)c2ccccc2C1=O	> 100 µM (inactive)	> 100 µM (inactive)	> 100 µM (inactive)	> 100 µM (inactive)	> 100 µM (inactive)	> 100 µM (inactive)	> 100 µM (inactive)	> 100 µM (inactive)	> 100 µM (inactive)	> 100 µM (inactive)	> 100 µM (inactive)	> 100 µM (inactive)	> 100 µM (inactive)	> 100 µM (inactive)	> 100 µM (inactive)	> 100 µM (inactive)	> 100 µM (inactive)	–	–	–
NC(CCCCNCc1ccccc1)C(=O)O (configuration not stated)	> 100 µM (inactive)	> 100 µM (inactive)	> 100 µM (inactive)	> 100 µM (inactive)	> 100 µM (inactive)	> 100 µM (inactive)	> 100 µM (inactive)	> 100 µM (inactive)	> 100 µM (inactive)	> 100 µM (inactive)	> 100 µM (inactive)	> 100 µM (inactive)	> 100 µM (inactive)	> 100 µM (inactive)	> 100 µM (inactive)	> 100 µM (inactive)	> 100 µM (inactive)	–	–	–
COc1cc(C2C(C(=O)Nc3ccccc3C)=C(C)NC(C)=C2C(=O)Nc2ccccc2C)ccc1O	> 100 µM (inactive)	> 100 µM (inactive)	> 100 µM (inactive)	> 100 µM (inactive)	> 100 µM (inactive)	> 100 µM (inactive)	> 100 µM (inactive)	> 100 µM (inactive)	84.7 µM (inactive)	> 100 µM (inactive)	> 100 µM (inactive)	> 100 µM (inactive)	> 100 µM (inactive)	> 100 µM (inactive)	71.8 µM (inactive)	> 100 µM (inactive)	> 100 µM (inactive)	–	–	–
